This experiment deals with T1, Tyrosine-protein phosphatase non-receptor type 1 (Homo sapiens, UniProt P18031).
T1 sequence (P18031 whole entry): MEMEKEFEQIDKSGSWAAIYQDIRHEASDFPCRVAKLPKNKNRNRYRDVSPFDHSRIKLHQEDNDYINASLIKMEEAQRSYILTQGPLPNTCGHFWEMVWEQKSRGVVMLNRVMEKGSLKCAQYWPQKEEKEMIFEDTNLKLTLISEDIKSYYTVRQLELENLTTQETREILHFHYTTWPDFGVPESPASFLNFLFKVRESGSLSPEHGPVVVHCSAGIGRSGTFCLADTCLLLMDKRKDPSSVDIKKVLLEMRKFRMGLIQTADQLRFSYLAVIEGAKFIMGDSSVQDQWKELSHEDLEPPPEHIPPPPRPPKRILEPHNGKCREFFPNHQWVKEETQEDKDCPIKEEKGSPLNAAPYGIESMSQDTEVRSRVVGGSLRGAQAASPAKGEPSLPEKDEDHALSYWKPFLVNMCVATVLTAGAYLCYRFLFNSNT
As to the kind of experiment: Inhibitory activity against protein tyrosine phosphatase 1B using O-methyl fluorescein monophosphate.
The IC50 is the concentration that inhibits the measured activity by half. Low values mean inhibition by little substance, high ones a need for much substance. Molecule `O=C(O)COc1c(F)ccc(S(=O)(=O)N(Cc2ccccc2)Cc2ccc(C(F)(F)P(=O)(O)O)cc2)c1F` returned an IC50 of 1600 nM. In turn, `O=C(O)COc1ccc(S(=O)(=O)N(Cc2ccccc2)Cc2ccc(C(F)(F)P(=O)(O)O)cc2)cc1Cl` registered an IC50 of 3000 nM.

`O=P(O)(O)C(F)(F)c1ccc(CNCc2ccc(-c3csnn3)cc2)cc1`: the concentration for half-maximal inhibition (IC50) came to 13700 nM.

The molecule `O=C(O)COc1ccc(S(=O)(=O)N(CC(=O)N2CCCCC2)Cc2ccc(C(F)(F)P(=O)(O)O)cc2)cc1` registered an IC50 of 6800 nM. Still for that read-out and setting: under `O=C(O)COc1ccc(S(=O)(=O)N(Cc2ccccc2)Cc2ccc(C(F)(F)P(=O)(O)O)cc2)cc1Br` stands 4000 nM; under `O=C(c1ccc(O)cc1)N(Cc1ccc(-c2csnn2)cc1)Cc1ccc(C(F)(F)P(=O)(O)O)cc1`, 6900 nM. For `O=C(c1ccc(CN(Cc2ccccc2)S(=O)(=O)c2ccccc2[N+](=O)[O-])cc1)C(F)(F)P(=O)(O)O`, the IC50 worked out at 12000 nM. With `O=C(O)COc1ccc(C(=O)N(Cc2ccc(-c3csnn3)cc2)Cc2ccc(C(F)(F)P(=O)(O)O)cc2)cc1`, the IC50 turned out to be 2300 nM. Still for that read-out and setting: under `O=C(O)COc1ccc(S(=O)(=O)N(Cc2ccc(NC(=O)c3ccccc3)cc2)Cc2ccc(C(F)(F)P(=O)(O)O)cc2)cc1` stands 630 nM; under `O=C(O)COc1ccc(S(=O)(=O)N(Cc2ccccc2)Cc2ccc(C(F)(F)P(=O)(O)O)cc2)cc1OC(F)(F)F`, 5000 nM. Same read-out and setting: under `O=C(O)COc1ccc(S(=O)(=O)N(Cc2ccc(C(F)(F)P(=O)(O)O)cc2)c2ccc(-c3csnn3)cc2)cc1` stands 220 nM. For orientation: Ki means the dissociation constant of the complex between target and ligand, obtained from inhibition or displacement. High values mean weaker binding, low ones tighter binding. Molecule `CN(Cc1ccccc1)C(=O)CN(Cc1ccc(C(F)(F)P(=O)(O)O)c(Br)c1)S(=O)(=O)c1ccc(OCC(=O)O)cc1` had an IC50 of 31 nM and a Ki of 14 nM. `CN(C)S(=O)(=O)c1ccc(CN(Cc2ccc(C(F)(F)P(=O)(O)O)c(Br)c2)S(=O)(=O)c2ccc(OCC(=O)O)cc2)cc1` showed an IC50 of 28 nM and an inhibition constant Ki of 13 nM. In turn, `O=C(O)COc1ccc(S(=O)(=O)N(Cc2ccccc2)Cc2ccc(C(F)(F)P(=O)(O)O)cc2)cc1F` had an IC50 of 3000 nM. This counts as single-digit micromolar. Same read-out and setting: under `CN(Cc1ccccc1)C(=O)CN(Cc1ccc(OCC(=O)O)cc1)Cc1ccc(C(F)(F)P(=O)(O)O)cc1` stands 67500 nM; under `O=C(O)c1cc(S(=O)(=O)N(Cc2ccccc2)Cc2ccc(C(F)(F)P(=O)(O)O)cc2)ccc1O`, 2900 nM. Same read-out and setting: under `CC(=O)NCCN(Cc1ccc(C(F)(F)P(=O)(O)O)cc1)S(=O)(=O)c1ccc(OCC(=O)O)cc1` stands 9000 nM; under `O=C(O)COc1ccc(S(=O)(=O)N(Cc2ccc(C(F)(F)P(=O)(O)O)cc2)Cc2cccs2)cc1`, 1000 nM. Still for that read-out and setting: the figure for `O=C(O)COc1c(F)cc(S(=O)(=O)N(Cc2ccccc2)Cc2ccc(C(F)(F)P(=O)(O)O)cc2)cc1F` is 1000 nM. Turning to `O=C(O)COc1ccc(S(=O)(=O)N(Cc2ccc(-c3csnn3)cc2)Cc2ccc(C(F)(F)P(=O)(O)O)c(Br)c2)cc1`, half-maximal inhibition (IC50) required 35 nM and the Ki came out at 53 nM.

As to `COc1cc(CN(Cc2ccc(S(=O)(=O)N(C)C)cc2)S(=O)(=O)c2ccc(OCC(=O)O)cc2)ccc1C(F)(F)P(=O)(O)O`, 1100 nM corresponded to half-maximal inhibition (IC50). Same read-out and setting: under `CC(=O)c1cccc(CN(Cc2ccc(C(F)(F)P(=O)(O)O)cc2)S(=O)(=O)c2ccc(OCC(=O)O)cc2)c1` stands 770 nM.

`O=P(O)(O)C(F)(F)c1ccc(CN(Cc2ccc(-c3csnn3)cc2)S(=O)(=O)c2ccccc2)cc1` displayed an IC50 of 210 nM and a Ki of 98 nM. `CS(=O)(=O)Nc1ccc(CN(Cc2ccc(C(F)(F)P(=O)(O)O)cc2)S(=O)(=O)c2ccc(OCC(=O)O)cc2)cc1` came in with a half-maximal inhibitory concentration (IC50) of 180 nM. Take `O=C(O)COc1ccc(S(=O)(=O)N(Cc2ccccc2)Cc2ccc(C(F)(F)P(=O)(O)O)cc2)cc1C(F)(F)F`: the IC50 worked out at 4000 nM. On the same count and under the same terms, under `Cc1cc(S(=O)(=O)N(Cc2ccccc2)Cc2ccc(C(F)(F)P(=O)(O)O)cc2)ccc1OCC(=O)O` stands 4000 nM. Still for that read-out and setting: under `O=[N+]([O-])c1ccccc1S(=O)(=O)N(Cc1ccccc1)Cc1ccc(C(F)(F)P(=O)(O)O)cc1` stands 7000 nM.

With `O=P(O)(O)C(F)(F)c1ccc(CN(Cc2ccccc2)S(=O)(=O)c2ccccc2)cc1`, the IC50 is 4200 nM.

With `CN(C)S(=O)(=O)c1ccc(CN(Cc2ccc(C(F)(F)P(=O)(O)O)cc2)S(=O)(=O)c2ccc(OCC(=O)O)cc2)cc1`, the midpoint of inhibition, the IC50, lay at 1100 nM. Same read-out and setting: the figure for `COc1cc(CN(Cc2ccc(-c3csnn3)cc2)S(=O)(=O)c2ccc(OCC(=O)O)cc2)ccc1C(F)(F)P(=O)(O)O` is 60 nM. Same read-out and setting: the figure for `O=C(O)COc1ccc(S(=O)(=O)N(Cc2ccccc2)Cc2ccc(C(F)(F)P(=O)(O)O)cc2)cc1` is 600 nM.

`CN(Cc1ccccc1)C(=O)CN(Cc1ccc(C(F)(F)P(=O)(O)O)cc1)S(=O)(=O)c1ccc(OCC(=O)O)cc1`: the IC50 came to 600 nM and affinity was put at a Ki of 590 nM. On to `Cc1cc(S(=O)(=O)N(Cc2ccccc2)Cc2ccc(C(F)(F)P(=O)(O)O)cc2)cc(C)c1OCC(=O)O`, for which half-maximal inhibition (IC50) required 1900 nM.

`O=C(O)COc1ccc(S(=O)(=O)N(Cc2ccc(-c3csnn3)cc2)Cc2ccc(C(F)(F)P(=O)(O)O)cc2)cc1` came in with an IC50 of 74 nM and a Ki of 56 nM.

For the origin of these results see ChEMBL document CHEMBL1141064, “Discovery and structure-activity relationships of novel sulfonamides as potent PTP1B inhibitors” (Bioorg Med Chem Lett, 2005).
